Legend:
[1] = biological target: T1, Endothelin receptor type B (Rattus norvegicus, UniProt P21451); test: In vitro binding affinity to endothelin B receptor in rat cerebellum; format: tissue-based
T1 sequence (P21451 whole entry): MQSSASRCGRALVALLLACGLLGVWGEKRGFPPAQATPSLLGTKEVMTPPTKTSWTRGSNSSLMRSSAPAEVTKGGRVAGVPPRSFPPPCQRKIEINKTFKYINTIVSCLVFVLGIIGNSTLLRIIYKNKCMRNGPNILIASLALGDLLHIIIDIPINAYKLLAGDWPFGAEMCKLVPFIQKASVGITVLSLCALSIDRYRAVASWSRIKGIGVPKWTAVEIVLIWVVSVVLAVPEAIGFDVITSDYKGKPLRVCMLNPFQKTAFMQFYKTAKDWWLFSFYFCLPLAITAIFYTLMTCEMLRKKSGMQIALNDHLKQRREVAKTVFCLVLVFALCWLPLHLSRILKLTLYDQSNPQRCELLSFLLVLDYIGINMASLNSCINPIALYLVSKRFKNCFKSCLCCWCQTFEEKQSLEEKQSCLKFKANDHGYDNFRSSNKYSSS

Endothelin-1 receptor = biological target: T2, Endothelin-1 receptor (Rattus norvegicus, UniProt P26684); test: In vitro binding affinity to endothelin A receptor in rat heart ventricles
T2 sequence (P26684 whole entry): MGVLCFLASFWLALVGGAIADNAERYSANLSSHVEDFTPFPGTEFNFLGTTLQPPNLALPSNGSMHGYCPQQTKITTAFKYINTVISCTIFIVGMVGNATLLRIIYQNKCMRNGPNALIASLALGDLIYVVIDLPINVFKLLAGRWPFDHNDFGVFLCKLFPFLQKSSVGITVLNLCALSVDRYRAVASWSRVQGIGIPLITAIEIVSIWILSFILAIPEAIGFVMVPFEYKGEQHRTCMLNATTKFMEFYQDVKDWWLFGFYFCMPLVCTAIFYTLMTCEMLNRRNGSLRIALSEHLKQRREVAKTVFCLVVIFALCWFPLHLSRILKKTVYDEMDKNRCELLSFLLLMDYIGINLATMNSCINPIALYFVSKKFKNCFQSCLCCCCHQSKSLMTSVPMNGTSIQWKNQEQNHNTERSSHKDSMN

[2] = tested on: Endothelin receptor ET-A/ET-B (Rattus norvegicus); test: Ratio of ETA / ETB was determined; 1/7
[3] = tested on: Endothelin receptor ET-A/ET-B (Rattus norvegicus); test: Ratio of ETA / ETB was determined; 22/1

| SMILES | IC50 [1] [nM] | IC50 (Endothelin-1 receptor) [nM] | Ratio [2] | Ratio [3] |
| --- | --- | --- | --- | --- |
| O=C(O)COc1ccccc1Cn1nc(-c2ccccc2)c(Cc2cc3c(cc2Cl)OCO3)c1C(=O)O | 3.3 | 59 | – | – |
| O=C(O)c1c(Cc2cc3c(cc2Cl)OCO3)c(-c2cccs2)nn1CC1CCCCC1 | 1.7 | 1.1 | – | – |
| O=C(O)c1c(Cc2cc3c(cc2Cl)OCO3)c(-c2cccnc2)nn1CC1CCCCC1 | 6.3 | 17.8 | – | – |
| O=C(O)c1cc2c(c(Cn3nc(-c4ccccc4)c(Cc4cc5c(cc4Cl)OCO5)c3C(=O)O)c1)OCOC2 | 44 | 2.5 | – | – |
| CCC(CC)Cn1nc(-c2ccccc2)c(Cc2cc3c(cc2Cl)OCO3)c1C(=O)O | 31 | 15 | – | – |
| O=C(O)c1c(Cc2cc3c(cc2Cl)OCO3)c(-c2ccco2)nn1CC1CCCCC1 | 9.8 | 1.3 | – | – |
| O=C(O)c1ccc(Cn2nc(-c3ccccc3)c(Cc3cc4c(cc3Cl)OCO4)c2C(=O)O)cc1 | 2040 | 11 | – | – |
| O=C(O)c1c(Cc2cc3c(cc2Cl)OCO3)c(-c2ccsc2)nn1CC1CCCCC1 | 3.2 | 1.1 | – | – |
| O=C(O)c1c(Cc2cc3c(cc2Cl)OCO3)c(-c2ccccc2)nn1Cc1cccc(Cl)c1 | 11 | 17 | – | – |
| O=C(O)c1c(Cc2cc3c(cc2Cl)OCO3)c(-c2ccccc2)nn1CC1CCCCC1 | 2.6 | 3.6 | – | – |
| COc1cc(Cn2nc(-c3ccccc3)c(Cc3cc4c(cc3Cl)OCO4)c2C(=O)O)cc(OC)c1 | 9.7 | 28 | – | – |
| O=C(O)c1c(Cc2cc3c(cc2Cl)OCO3)c(-c2cccs2)nn1CC1CCC(C(=O)O)CC1 (stereo not drawn) | 825 | 0.81 | – | – |
| O=C(O)COC1CCCCC1Cn1nc(-c2ccccc2)c(Cc2cc3c(cc2Cl)OCO3)c1C(=O)O (stereo not drawn) | 3.2 | 20.5 | – | – |
| O=C(O)c1c(Cc2cc3c(cc2Cl)OCO3)c(-c2ccccc2)nn1C1CCCCC1 | 131 | 226 | – | – |
| O=C(O)c1c(Cc2cc3c(cc2Cl)OCO3)c(-c2ccccc2)nn1CC1OCCO1 | 953 | 70 | – | – |
| O=C(O)c1c(Cc2cc3c(cc2Cl)OCO3)c(-c2ccccc2)nn1CC12CC3CC(CC(C3)C1)C2 | 4.9 | 3.4 | – | – |
| COc1ccc(-c2nn(CC3CCCCC3)c(C(=O)O)c2Cc2cc3c(cc2Cl)OCO3)cc1 | 178 | – | – | – |
| O=C(O)c1c(Cc2cc3c(cc2Cl)OCO3)c(-c2cccs2)nn1CC1CCCC(C(=O)O)C1 (stereo not drawn) | 9.9 | 1.3 | 7 | – |
| COc1ccc(Cn2nc(-c3ccccc3)c(Cc3cc4c(cc3Cl)OCO4)c2C(=O)O)c(OCC(=O)O)c1 | 4 | 89 | – | 22 |
| O=C(O)COc1ccccc1Cn1nc(-c2cccs2)c(Cc2cc3c(cc2Cl)OCO3)c1C(=O)O | 4.6 | 28.3 | – | – |
| O=C(O)c1c(Cc2cc3c(cc2Cl)OCO3)c(-c2ccccn2)nn1CC1CCCCC1 | 3.4 | 4.7 | – | – |
| O=C(O)c1c(Cc2cc3c(cc2Cl)OCO3)c(-c2ccccc2)nn1Cc1ccc(Cl)c(Cl)c1 | 26 | 34 | – | – |
| COc1ccc(Cn2nc(-c3cccs3)c(Cc3cc4c(cc3Cl)OCO4)c2C(=O)O)c(OCC(=O)O)c1 | 8.6 | 14.9 | – | – |
| O=C(O)c1c(Cc2cc3c(cc2Cl)OCO3)c(-c2ccccc2)nn1CC1CCCC(C(=O)O)C1 (stereo not drawn) | 14.8 | 2.5 | – | – |
| O=C(O)c1cc(Cn2nc(-c3ccccc3)c(Cc3cc4c(cc3Cl)OCO4)c2C(=O)O)on1 | 440 | 79 | – | – |
| O=C(O)c1c(Cc2cc3c(cc2Cl)OCO3)c(-c2ccccc2)nn1CC1CCC(C(=O)O)CC1 (stereo not drawn) | 810 | 4.9 | – | – |

Reference: ChEMBL document CHEMBL1133146, “Potent nonpeptide endothelin antagonists: synthesis and structure-activity relationships of pyrazole-5-carboxylic acids” (Bioorg Med Chem Lett, 2000)
